How the values were obtained:
[1] = test system: B. subtilis 168; experiment: Bliss interaction score (quartile over a dose matrix) (fitness difference); higher = more antagonism (negative = synergy)
Method in brief: (§1)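 The Bliss score is observed minus expected fitness under the product model, reported as quartiles over technical, biological and donor/recipient replicates. Fitness is the OD595 at entry into stationary phase divided by the plate's robust no-drug mean and capped at 1. Single-drug fitness was inferred from combination data.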

[2] = test system: S. aureus DSM 20231; experiment: as above
Method in brief: as §1

[3] = test system: S. aureus Newman; experiment: as above
Method in brief: as §1

[4] = test system: S. pneumoniae D39V; experiment: as above
Method in brief: as §1

[5] = test system: B. subtilis 168; experiment: fitness (endpoint OD595 vs no drug) (fraction); higher = more growth
Method in brief: (§2)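 Plates with 384 wells were inoculated at OD595 0.01 using 30 µl of TSB, LB Lennox or CY, or 55 µl for S. pneumoniae. Incubation was at 37 °C, with OD595 measured every 30 min for 14 h. Fitness is the stationary-phase transition optical density over the robust mean of no-drug control wells, after first-reading background subtraction; it is capped at 1.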

[6] = test system: S. pneumoniae D39V; experiment: as above
Method in brief: as §2
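Wherever Bliss interaction score (quartile over a dose matrix) is given: first quartile when negative (synergy) and third quartile when positive (antagonism).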

O=C(O)c1cn(C2CC2)c2cc(N3CCNCC3)c(F)cc2c1=O [Ciprofloxacin] + CCC(C)C1C(=O)NC(=C)C(=O)NC(C(=O)NC(CSCC(C(=O)N1)NC(=O)/C(=C/C)/NC(=O)C(C(C)CC)N)C(=O)NC2C(SCC(NC(=O)CNC(=O)C3CCCN3C2=O)C(=O)NC(CCCCN)C(=O)NC4C(SCC(NC(=O)CNC(=O)C(NC(=O)C(NC(=O)C(NC(=O)CNC4=O)C)CC(C)C)CCSC)C(=O)NC(CC(=O)N)C(=O)NC(CCSC)C(=O)NC(CCCCN)C(=O)NC5C(SCC6C(=O)NC(C(=O)NC(CSC(C(C(=O)N6)NC(=O)C(NC5=O)C)C)C(=O)NC(CO)C(=O)NC(C(C)CC)C(=O)NC(CC7=CN=CN7)C(=O)NC(C(C)C)C(=O)NC(=C)C(=O)NC(CCCCN)C(=O)O)CC8=CN=CN8)C)C)C)CC(C)C [Nisin]
Bliss interaction score ([1]; main component drawn): -0.0496 | Bliss interaction score ([2]; main component drawn): -0.123 | Bliss interaction score ([3]; main component drawn): -0.059 | Bliss interaction score ([4]; main component drawn): -0.0601 | fitness ([5]; first compound 0.0098 µg/mL, partner 0.5 µg/mL, main component drawn): 0.838 | fitness ([5]; first compound 0.0098 µg/mL, partner 1 µg/mL, main component drawn): 0.814 | fitness ([5]; first compound 0.0098 µg/mL, partner 1.25 µg/mL, one replicate, main component drawn): 0.919 | fitness ([5]; first compound 0.0098 µg/mL, partner 1.6 µg/mL, one replicate, main component drawn): 0.726 | fitness ([5]; first compound 0.0098 µg/mL, partner 2 µg/mL, main component drawn): 0.568 | fitness ([5]; first compound 0.0098 µg/mL, partner 2.5 µg/mL, one replicate, main component drawn): 0.577 | fitness ([5]; first compound 0.0098 µg/mL, partner 3.2 µg/mL, one replicate, main component drawn): 0.0245 | fitness ([5]; first compound 0.0098 µg/mL, partner 4 µg/mL, one replicate, main component drawn): 0.368 | fitness ([5]; first compound 0.0098 µg/mL, partner 5 µg/mL, one replicate, main component drawn): 0.0657 | fitness ([5]; first compound 0.0098 µg/mL, partner 6.4 µg/mL, one replicate, main component drawn): 0.0606 | fitness ([5]; first compound 0.0098 µg/mL, partner 8 µg/mL, one replicate, main component drawn): 0.0414 | fitness ([5]; first compound 0.0098 µg/mL, partner 16 µg/mL, one replicate, main component drawn): 0.0186 | fitness ([5]; first compound 0.0195 µg/mL, partner 0.5 µg/mL, main component drawn): 0.702 | fitness ([5]; first compound 0.0195 µg/mL, partner 1 µg/mL, main component drawn): 0.591 | fitness ([5]; first compound 0.0195 µg/mL, partner 1.25 µg/mL, one replicate, main component drawn): 0.795 | fitness ([5]; first compound 0.0195 µg/mL, partner 1.6 µg/mL, one replicate, main component drawn): 0.575 | fitness ([5]; first compound 0.0195 µg/mL, partner 2 µg/mL, main component drawn): 0.427 | fitness ([5]; first compound 0.0195 µg/mL, partner 2.5 µg/mL, one replicate, main component drawn): 0.381 | fitness ([5]; first compound 0.0195 µg/mL, partner 3.2 µg/mL, one replicate, main component drawn): 0.0411 | fitness ([5]; first compound 0.0195 µg/mL, partner 4 µg/mL, one replicate, main component drawn): 0.223 | fitness ([5]; first compound 0.0195 µg/mL, partner 5 µg/mL, one replicate, main component drawn): 0.035 | fitness ([5]; first compound 0.0195 µg/mL, partner 6.4 µg/mL, one replicate, main component drawn): 0.0488 | fitness ([5]; first compound 0.0195 µg/mL, partner 8 µg/mL, one replicate, main component drawn): 0.0139 | fitness ([5]; first compound 0.0195 µg/mL, partner 16 µg/mL, one replicate, main component drawn): 0.0115 | fitness ([5]; first compound 0.039 µg/mL, partner 0.5 µg/mL, main component drawn): 0.276 | fitness ([5]; first compound 0.039 µg/mL, partner 1 µg/mL, main component drawn): 0.129 | fitness ([5]; first compound 0.039 µg/mL, partner 1.25 µg/mL, one replicate, main component drawn): 0.256 | fitness ([5]; first compound 0.039 µg/mL, partner 1.6 µg/mL, one replicate, main component drawn): 0.0309 | fitness ([5]; first compound 0.039 µg/mL, partner 2 µg/mL, main component drawn): 0.031 | fitness ([5]; first compound 0.039 µg/mL, partner 2.5 µg/mL, one replicate, main component drawn): 0.0565 | fitness ([5]; first compound 0.039 µg/mL, partner 3.2 µg/mL, one replicate, main component drawn): 0.0347 | fitness ([5]; first compound 0.039 µg/mL, partner 4 µg/mL, one replicate, main component drawn): 0.0357 | fitness ([5]; first compound 0.039 µg/mL, partner 5 µg/mL, one replicate, main component drawn): 0.061 | fitness ([5]; first compound 0.039 µg/mL, partner 6.4 µg/mL, one replicate, main component drawn): 0.0335 | fitness ([5]; first compound 0.039 µg/mL, partner 8 µg/mL, one replicate, main component drawn): 0.0446 | fitness ([5]; first compound 0.039 µg/mL, partner 16 µg/mL, one replicate, main component drawn): 0.0305 | fitness ([6]; first compound 0.125 µg/mL, partner 0.4275 µg/mL, main component drawn): 0.954 | fitness ([6]; first compound 0.125 µg/mL, partner 0.855 µg/mL, main component drawn): 0.825 | fitness ([6]; first compound 0.125 µg/mL, partner 1.6 µg/mL, main component drawn): 0.0088 | fitness ([6]; first compound 0.125 µg/mL, partner 1.71 µg/mL, main component drawn): 0.0552 | fitness ([6]; first compound 0.125 µg/mL, partner 3.2 µg/mL, main component drawn): 0.0108 | fitness ([6]; first compound 0.125 µg/mL, partner 6.4 µg/mL, main component drawn): 0.005 | fitness ([6]; first compound 0.25 µg/mL, partner 0.4275 µg/mL, main component drawn): 0.883 | fitness ([6]; first compound 0.25 µg/mL, partner 0.855 µg/mL, main component drawn): 0.398 | fitness ([6]; first compound 0.25 µg/mL, partner 1.6 µg/mL, one replicate, main component drawn): 0 | fitness ([6]; first compound 0.25 µg/mL, partner 1.71 µg/mL, main component drawn): 0.0414 | fitness ([6]; first compound 0.25 µg/mL, partner 3.2 µg/mL, one replicate, main component drawn): 0 | fitness ([6]; first compound 0.25 µg/mL, partner 6.4 µg/mL, one replicate, main component drawn): 0 | fitness ([6]; first compound 0.5 µg/mL, partner 0.4275 µg/mL, main component drawn): 0.614 | fitness ([6]; first compound 0.5 µg/mL, partner 0.855 µg/mL, main component drawn): 0.173 | fitness ([6]; first compound 0.5 µg/mL, partner 1.6 µg/mL, main component drawn): 0.0116 | fitness ([6]; first compound 0.5 µg/mL, partner 1.71 µg/mL, main component drawn): 0.0558 | fitness ([6]; first compound 0.5 µg/mL, partner 3.2 µg/mL, main component drawn): 0.043

O=C(O)c1cn(C2CC2)c2cc(N3CCNCC3)c(F)cc2c1=O [Ciprofloxacin] + CCC[C@@H]1C[C@@H](C(=O)N[C@@H]([C@H]2O[C@H](SC)[C@H](O)[C@@H](O)[C@H]2O)[C@@H](C)O)N(C)C1 [Lincomycin]
Bliss interaction score [1]: 0.169 | Bliss interaction score [2]: 0.208 | Bliss interaction score [3]: 0.119 | Bliss interaction score [4]: 0.0743 | fitness ([5]; first compound 0.0098 µg/mL, partner 0.1 µg/mL): 0.876 | fitness ([5]; first compound 0.0098 µg/mL, partner 0.2 µg/mL): 0.814 | fitness ([5]; first compound 0.0098 µg/mL, partner 0.4 µg/mL): 0.9 | fitness ([5]; first compound 0.0098 µg/mL, partner 0.8 µg/mL, one replicate): 0.943 | fitness ([5]; first compound 0.0098 µg/mL, partner 1.6 µg/mL, one replicate): 0.926 | fitness ([5]; first compound 0.0195 µg/mL, partner 0.1 µg/mL): 0.713 | fitness ([5]; first compound 0.0195 µg/mL, partner 0.2 µg/mL): 0.751 | fitness ([5]; first compound 0.0195 µg/mL, partner 0.4 µg/mL): 0.763 | fitness ([5]; first compound 0.0195 µg/mL, partner 0.8 µg/mL, one replicate): 0.745 | fitness ([5]; first compound 0.0195 µg/mL, partner 1.6 µg/mL, one replicate): 0.767 | fitness ([5]; first compound 0.039 µg/mL, partner 0.8 µg/mL, one replicate): 0.486 | fitness ([5]; first compound 0.039 µg/mL, partner 1.6 µg/mL, one replicate): 0.674 | fitness ([6]; first compound 0.125 µg/mL, partner 0.2 µg/mL): 0.564 | fitness ([6]; first compound 0.125 µg/mL, partner 0.215 µg/mL): 0.801 | fitness ([6]; first compound 0.125 µg/mL, partner 0.4 µg/mL): 0.323 | fitness ([6]; first compound 0.125 µg/mL, partner 0.43 µg/mL): 0.722 | fitness ([6]; first compound 0.125 µg/mL, partner 0.8 µg/mL): 0.0204 | fitness ([6]; first compound 0.125 µg/mL, partner 0.86 µg/mL): 0.469 | fitness ([6]; first compound 0.25 µg/mL, partner 0.2 µg/mL, one replicate): 0.404 | fitness ([6]; first compound 0.25 µg/mL, partner 0.215 µg/mL): 0.789 | fitness ([6]; first compound 0.25 µg/mL, partner 0.4 µg/mL, one replicate): 0.256 | fitness ([6]; first compound 0.25 µg/mL, partner 0.43 µg/mL): 0.701 | fitness ([6]; first compound 0.25 µg/mL, partner 0.8 µg/mL, one replicate): 0 | fitness ([6]; first compound 0.25 µg/mL, partner 0.86 µg/mL): 0.517 | fitness ([6]; first compound 0.5 µg/mL, partner 0.2 µg/mL): 0.46 | fitness ([6]; first compound 0.5 µg/mL, partner 0.215 µg/mL): 0.674 | fitness ([6]; first compound 0.5 µg/mL, partner 0.4 µg/mL): 0.292 | fitness ([6]; first compound 0.5 µg/mL, partner 0.43 µg/mL): 0.618 | fitness ([6]; first compound 0.5 µg/mL, partner 0.8 µg/mL): 0.0616 | fitness ([6]; first compound 0.5 µg/mL, partner 0.86 µg/mL): 0.318

O=C(O)c1cn(C2CC2)c2cc(N3CCNCC3)c(F)cc2c1=O [Ciprofloxacin] + CN(C)C(=O)C(CCN1CCC(O)(c2ccc(Cl)cc2)CC1)(c1ccccc1)c1ccccc1 [Loperamide]
Bliss interaction score [1]: 0.199 | Bliss interaction score [2]: -0.258 | Bliss interaction score [3]: -0.0992 | Bliss interaction score [4]: 0.109 | fitness ([5]; first compound 0.0098 µg/mL, partner 25 µg/mL): 0.855 | fitness ([5]; first compound 0.0195 µg/mL, partner 25 µg/mL): 0.643 | fitness ([5]; first compound 0.039 µg/mL, partner 25 µg/mL): 0.038 | fitness ([5]; first compound 0.039 µg/mL, partner 50 µg/mL): 0.0608 | fitness ([5]; first compound 0.039 µg/mL, partner 100 µg/mL): 0.0402 | fitness ([6]; first compound 0.125 µg/mL, partner 17.14 µg/mL): 0.944 | fitness ([6]; first compound 0.125 µg/mL, partner 20 µg/mL): ≥ 1 | fitness ([6]; first compound 0.125 µg/mL, partner 34.28 µg/mL): 0.923 | fitness ([6]; first compound 0.125 µg/mL, partner 40 µg/mL): ≥ 1 | fitness ([6]; first compound 0.125 µg/mL, partner 68.57 µg/mL, one replicate): 0.952 | fitness ([6]; first compound 0.25 µg/mL, partner 17.14 µg/mL): 0.887 | fitness ([6]; first compound 0.25 µg/mL, partner 20 µg/mL, one replicate): 0.994 | fitness ([6]; first compound 0.25 µg/mL, partner 34.28 µg/mL): 0.886 | fitness ([6]; first compound 0.25 µg/mL, partner 40 µg/mL, one replicate): ≥ 1 | fitness ([6]; first compound 0.25 µg/mL, partner 68.57 µg/mL, one replicate): 0.964 | fitness ([6]; first compound 0.25 µg/mL, partner 80 µg/mL, one replicate): 0.531 | fitness ([6]; first compound 0.5 µg/mL, partner 17.14 µg/mL): 0.763 | fitness ([6]; first compound 0.5 µg/mL, partner 20 µg/mL): 0.883 | fitness ([6]; first compound 0.5 µg/mL, partner 34.28 µg/mL): 0.731 | fitness ([6]; first compound 0.5 µg/mL, partner 40 µg/mL): 0.865 | fitness ([6]; first compound 0.5 µg/mL, partner 68.57 µg/mL, one replicate): 0.886
